Experimental data taken from PMC12388506, “Preclinical Evaluation of 2-Aminobenzothiazole Derivatives: In Silico, In Vitro, and Preliminary In Vivo Studies as Diabetic Treatments and Their Complications” (Molecules, 2025).

Key:
ABTS assay = test: ABTS assay
Description: All synthesized compounds were evaluated at 30 μM, 50 μM, 70 μM, 90 μM, and 110 μM under two of the most widely used methods in research to directly measure the antioxidant and anti-radical intrinsic capacity, FRAP, and ABTS assay, which were validated by a dose–response curve of 5-ASA as a reference. In the same way, these tests were carried out in triplicate using an assay kit (from Pharmaceutical and Biotechnological Innovation-Services) according to the manufacturer’s instructions.

male Wistar rat = test: Acute oral toxicity, Up and Down procedure (OECD 425); format: in vivo; set-up: Heart weight / IWA (initial weight of animals) / FWA (final weight of animals) / Spleen weight / Liver weight / Intestine weight / Stomach weight / Kidney weight: unit not given here
Description: All synthesized compounds (8c, 8d, and 12d as a racemic mixture) were suspended in 2% Tween 80 in water and administered orally by an esophageal cannula following the “Up and Down” methodology. Nevertheless, compounds could not be solubilized in the desired volume to complete the highest dose (1750 mg/Kg), so the toxicity test was performed with a maximum dose of 1250 mg/Kg. Even so, the values obtained indicate that these compounds are classified within toxicity category 4 according to the guidelines established by the Organization for Economic Co-operation and Development (OECD).
The “Up and Down” procedure of OECD Guideline 425 was used to estimate the LD50 value of synthesized compounds. Briefly, a dose of 175 mg/Kg was administered to a male Wistar rat, which was monitored continuously for 48 h. As the animal survived, a second animal received a dose of 550 mg/Kg, and, as it survived, a third animal received an increasing dose of 1750 mg/Kg. Finally, two other rats were administered the same dose. All animals were kept under observation for 14 days, and 24 h later, they were taken to the humane endpoint for macroscopic examination of organs and tissues. Finally, the LD50 value of the compounds was estimated to determine their degree of toxicity and classified based on the GHS of Classification and Labeling of Chemicals.

[1] = tested on: STZ-HFD-induced T2D Wistar rats; test: 24-element blood chemistry in STZ-HFD-induced T2D model; format: in vivo, rat; set-up: GGT / TBA / AMY / TG / T-CHOL / GLU: unit not given here; settings: for ALP / ALT / AST / CK: in U/L (unit assumed); for ALB / GLO / TP: in g/dL (unit assumed); for BUN / CRE / Ca / Mg / P / TBIL / UREA: in mg/dL (unit assumed); for tCO2: in mmol/L (unit assumed); for TP: mean ± SEM, n = 4
Description: Treatments were administered daily as described above, adjusting the dose according to the weight of the individuals. Fasting glucose levels (6 h fast) were monitored every 7 days until the end of treatments at week 10 (Figure 14). Halfway through the last week of treatment, the OGTT was performed, administering a dose of 1.5 g/Kg of glucose orally and subsequently monitoring capillary blood glucose at 0, 15, 30, 60, 90, and 120 min [62]. In addition, a 24-element blood chemistry was measured in a Celercare V automated dry chemistry analyzer (Tianjin MNCHIP Technologies Co., Ltd., Tianjin, China) at the beginning and end of the model. For this purpose, the blood samples were obtained from the tail of the rat.
At the end of the study, animals fasted for 12 h and were taken to a humane endpoint, where blood samples were obtained. These were kept at room temperature for 30 min and then centrifuged at 4000 RPM for 15 min at 4 °C. Finally, the serum was used to perform 24-element blood chemistry and quantify Trolox-equivalent TAC [86], TNF-α [87], and IL-6 levels using commercial kits from Merck (Darmstadt, Germany), Sigma-Aldrich (St. Louis, MO, USA), Cat. No. MAK334-1KT, RAB0479-1KT, and RAB0311-1KT, respectively. In addition, insulin was quantified using the Rat Ins1/Insulin ELISA Kit, from Sigma-Aldrich, No. Cat. RAB0904-1KT [89] to determine the HOMA-IR index. All kits were performed according to the manufacturer’s instructions without modifications.

ALR2 enzyme = target: T1, ALR2 enzyme (Homo sapiens, UniProt P15121); test: ALR2 activity assay kit (ab273276), inhibition; format: biochemical; settings: Inhibitor concentration;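 note: inhibition calculated from the rate of NADPH cofactor consumption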
T1 construct: purchased ab273276

[2] = 1250 mg/Kg oral, necropsy, mean ± SEM

For `COC(=O)[C@H](Cc1ccccc1)N/C(=N\c1nc2ccccc2s1)SC` [8d, Methyl (E)-((benzo[d]thiazol-2-ylimino)(methylthio)methyl)-L-phenylalaninate], the “Percentage reduction of radical cation ABTS” value (shortened to “Percentage reduction”) (ABTS assay; 30 µM) was -4.0%, the “Percentage reduction” value (ABTS assay; 50 µM) was -3.0% and the “Percentage reduction” value (ABTS assay; 70 µM) was -4.2%. For the same compound, the “Percentage reduction” value (ABTS assay; 90 µM) was -3.6%, the “Percentage reduction” value (ABTS assay; 110 µM) was -2.5% and the “FWA (final weight of animals)” value (male Wistar rat; 1250 mg/Kg oral, after 14 days, mean ± SEM) was 310.57 ± 11.6. For the same compound, the “IWA (initial weight of animals)” value (male Wistar rat; 1250 mg/Kg oral, mean ± SEM) was 201.0 ± 7.17, the Heart weight (male Wistar rat; [2]) was 1.30 ± 0.03 and the Intestine weight (male Wistar rat; [2]) was 29.97 ± 0.72. The Kidney weight (male Wistar rat; [2]) was 2.97 ± 0.03, the Liver weight (male Wistar rat; [2]) was 17.57 ± 0.50 and the Spleen weight (male Wistar rat; [2]) was 0.67 ± 0.07. For the same compound, the Stomach weight (male Wistar rat; [2]) was 1.70 ± 0.10, the “toxicity category (OECD)” value (male Wistar rat; maximum dose 1250 mg/Kg oral) was 4 and the “triglycerides (TG)” value ([1]; After 5 weeks of treatment) was “significantly reducing TG”. It also gave an A/G ([1]; Final) of 1.28 ± 0.03, an AMY ([1]; Final) of 436.50 ± 29.54 and an AST/ALT ([1]; Final) of 4.42 ± 0.79. It also gave a BUN/CRE ([1]; Final) of 28.50 ± 6.00, a GGT ([1]; Final) of 0.65 ± 0.18 and a GLU ([1]; Final) of 172.75 ± 50.56. The T-CHOL ([1]; Final) was 90.00 ± 16.06, the TBA ([1]; Final) was 54.33 ± 31.99 and the TG ([1]; Final) was 177.90 ± 82.61. It also gave an ALP ([1]; Final) of 210.25 ± 109.57, an ALT ([1]; Final) of 85.50 ± 27.46 and an AST ([1]; Final) of 319.75 ± 51.70. The CK ([1]; Final) was > 3000, the ALB ([1]; Final) was 4.00 ± 0.16 and the GLO ([1]; Final) was 3.13 ± 0.13. It also gave a BUN ([1]; Final) of 17.78 ± 4.29, a CRE ([1]; Final) of 0.62 ± 0.03 and a Ca ([1]; Final) of 9.82 ± 0.48. It also gave a Mg ([1]; Final) of 2.34 ± 0.09, a P ([1]; Final) of 7.89 ± 0.55 and a TBIL ([1]; Final) of 0.25 ± 0.05. The UREA ([1]; Final) was 38.10 ± 9.11, the tCO2 ([1]; Final) was 18.00 ± 0.82 and the TP ([1]; Final) was 7.13 ± 0.28. The A/G ([1]; Initial) was 1.3 ± 0.11, the AMY ([1]; Initial) was 361.25 ± 6.54 and the AST/ALT ([1]; Initial) was 2.16 ± 0.40. It also gave a BUN/CRE ([1]; Initial) of 21.50 ± 2.60, a GGT ([1]; Initial) of 1.33 ± 0.38 and a GLU ([1]; Initial) of 188.50 ± 31.74. It also gave a T-CHOL ([1]; Initial) of 105.5 ± 19.94, a TBA ([1]; Initial) of 79.85 ± 13.64 and a TG ([1]; Initial) of 291.35 ± 160.5. The ALP ([1]; Initial) was 287.75 ± 31.54, the ALT ([1]; Initial) was 68.75 ± 11.67 and the AST ([1]; Initial) was 135.75 ± 8.14. The CK ([1]; Initial) was 641.75 ± 63.37, the ALB ([1]; Initial) was 3.78 ± 0.08 and the GLO ([1]; Initial) was 2.95 ± 0.22. The BUN ([1]; Initial) was 11.94 ± 1.46, the CRE ([1]; Initial) was 0.56 ± 0.00 and the Ca ([1]; Initial) was 9.45 ± 0.16. It also gave a Mg ([1]; Initial) of 2.18 ± 0.07, a P ([1]; Initial) of 6.83 ± 0.64 and a TBIL ([1]; Initial) of 0.31 ± 0.05. The UREA ([1]; Initial) was 25.65 ± 3.10, the tCO2 ([1]; Initial) was 15.25 ± 0.63 and the TP ([1]; Initial) was 6.73 ± 0.20. The hepatotoxicity ([1]; subchronic treatment) was “without inducing hepatotoxicity” and the “relative ALR2 inhibition” value (ALR2 enzyme) was 98.000%.
